Source: patent US9624241B2 (Incyte Corporation, priority 2013, dated 2017)
Like-named read-outs stand apart in the source and are kept apart here.

Legend:
BRD4-BD1 = BRD4-BD1 (Homo sapiens (Human), UniProt O60885); assay: BRD4 AlphaScreen Assay (Example A2), BRD4-BD1; type: binding
Method: (§1) BRD4-BD1 and BRD4-BD2 assays were conducted in white 384-well polystyrene plate in a final volume of 40 μL for BD1 and 60 μL for BD2. Inhibitors were first serially diluted in DMSO and added to the plate wells before the addition of other reaction components. […] The assays were carried out at room temperature in the assay buffer (50 mM Tris-HCl, pH 7.5, 0.01% Tween-20, 0.01% BSA, 5 mM DTT), containing 50 nM Biotin-labeled tetra-acetylated histone H4 peptide (H4Ac4) and BRD4-BD1 or BRD4-BD2 protein at concentration less than 1 nM. […] After plate sealing, the plate was incubated in the dark at room temperature for 75 min. before reading on a PHERAstar FS plate reader (BMG Labtech). IC50 determination was performed by fitting the curve of percent control activity versus the log of the inhibitor concentration using the GraphPad Prism 5.0 software.

BRD4-BD2 = BRD4-BD2 (Homo sapiens (Human), UniProt O60885); assay: BRD4 AlphaScreen Assay (Example A2), BRD4-BD2; type: binding; settings: read-out: BRD4 BD-2 enzyme IC50
Method: as §1

[1] = Assay A2, AlphaScreen, BRD4-BD1, read-out: BRD4 BD-1 enzyme IC50
[2] = Assay A2, AlphaScreen, BRD4-BD2

Row | IC50 (BRD4-BD1; [1]) [nM] | IC50 (BRD4-BD2; [2]) [nM] | SMILES | IC50 (BRD4-BD1) [nM] | IC50 (BRD4-BD2) [nM]
1 | 1000 to 10000 | 100 to 1000 | Cc1noc(C)c1-c1cc(-c2ccnn2C)c2[nH]c(=O)n3c2c1OC[C@@H]3c1ccccn1 [Example 85, (4S)-7-(3,5-dimethylisoxazol-4-yl)-9-(1-methyl-1H-pyrazol-5-yl)-4-pyridin-2-yl-4,5-dihydroimidazo[1,5,4-de][1,4]benzoxazin-2(1H)-one 2,2,2-trifluoroacetate] |  | 
2 | < 100 | < 100 | Cc1noc(C)c1-c1ccc2nc([C@@H](O)CO)n3c2c1OC[C@@H]3c1ccccn1 [Example 89, (1R)-1-[(4S)-7-(3,5-Dimethylisoxazol-4-yl)-4-pyridin-2-yl-4,5-dihydroimidazo[1,5,4-de][1,4]benzoxazin-2-yl]ethane-1,2-diol] |  | 
3 | < 100 | < 100 | Cc1noc(C)c1-c1ccc2nc(C(C)O)n3c2c1OC[C@@H]3c1ccccn1 (stereo partly drawn) [Example 90, 1-[(4S)-7-(3,5-Dimethylisoxazol-4-yl)-4-pyridin-2-yl-4,5-dihydroimidazo[1,5,4-de][1,4]benzoxazin-2-yl]ethanol] |  | 
4 | < 100 | < 100 | Cc1noc(C)c1-c1ccc2ncn3c2c1OC[C@@H]3c1ccccn1 [Example 92, (4S)-7-(3,5-Dimethylisoxazol-4-yl)-4-pyridin-2-yl-4,5-dihydroimidazo[1,5,4-de][1,4]benzoxazine] |  | 
5 | < 100 | < 100 | CNC(=O)c1nc2ccc(-c3c(C)noc3C)c3c2n1[C@@H](c1ccccn1)CO3 [Example 95, (4S)-7-(3,5-Dimethylisoxazol-4-yl)-N-methyl-4-pyridin-2-yl-4,5-dihydroimidazo[1,5,4-de][1,4]benzoxazine-2-carboxamide] |  | 
6 | < 100 | < 100 | Cc1noc(C)c1-c1ccc2nc(C(N)=O)n3c2c1OC[C@@H]3c1ccccn1 [Example 96, (4S)-7-(3,5-Dimethylisoxazol-4-yl)-4-pyridin-2-yl-4,5-dihydroimidazo[1,5,4-de][1,4]benzoxazine-2-carboxamide] |  | 
7 | < 100 | < 100 | Cc1noc(C)c1-c1ccc2nc(C3=CCN(C(=O)OC(C)(C)C)CC3)n3c2c1OC[C@@H]3c1ccccn1 [Example 97, tert-Butyl 4-[(4S)-7-(3,5-dimethylisoxazol-4-yl)-4-pyridin-2-yl-4,5-dihydroimidazo[1,5,4-de][1,4]benzoxazin-2-yl]-3,6-dihydropyridine-1(2H)-carboxylate] |  | 
8 | < 100 | < 100 | Cc1noc(C)c1-c1ccc2nc(C3=CCN(C(=O)OC(C)(C)C)C3)n3c2c1OC[C@@H]3c1ccccn1 [Example 98, tert-Butyl 3-[(4S)-7-(3,5-dimethylisoxazol-4-yl)-4-pyridin-2-yl-4,5-dihydroimidazo[1,5,4-de][1,4]benzoxazin-2-yl]-2,5-dihydro-1H-pyrrole-1-carboxylate] |  | 
9 | < 100 | < 100 | Cc1noc(C)c1-c1ccc2nc(C3CCN(C(=O)OC(C)(C)C)CC3)n3c2c1OC[C@@H]3c1ccccn1 [Example 100, tert-Butyl 4-[(4S)-7-(3,5-dimethylisoxazol-4-yl)-4-pyridin-2-yl-4,5-dihydroimidazo[1,5,4-de][1,4]benzoxazin-2-yl]piperidine-1-carboxylate] |  | 

Second part, the compound before the results:

Row | SMILES | IC50 (BRD4-BD1; [1]) [nM] | IC50 (BRD4-BD2; [2]) [nM] | IC50 (BRD4-BD1) [nM] | IC50 (BRD4-BD2) [nM]
10 | Cc1noc(C)c1-c1cc(-c2cnn(C)c2)c2[nH]c(=O)n3c2c1OC[C@@H]3c1ccccn1 [Example 81, (4S)-7-(3,5-dimethylisoxazol-4-yl)-9-(1-methyl-1H-pyrazol-4-yl)-4-pyridin-2-yl-4,5-dihydroimidazo[1,5,4-de][1,4]benzoxazin-2(1H)-one 2,2,2-trifluoroacetate] | 100 to 1000 | < 100 |  | 
11 | Cc1noc(C)c1-c1cc(-c2ccc(C(=O)N(C)C)nc2)c2[nH]c(=O)n3c2c1OC[C@@H]3c1ccccn1 [Example 82, 5-[(4S)-7-(3,5-dimethylisoxazol-4-yl)-2-oxo-4-pyridin-2-yl-1,2,4,5-tetrahydroimidazo[1,5,4-de][1,4]benzoxazin-9-yl]-N,N-dimethylpyridine-2-carboxamide 2,2,2-bis(trifluoroacetate)] | 100 to 1000 | < 100 |  | 
12 | Cc1noc(C)c1-c1cc(C2=CCN(C(=O)OC(C)(C)C)CC2)c2[nH]c(=O)n3c2c1OC[C@@H]3c1ccccn1 [Example 83, tert-butyl 4-[(4S)-7-(3,5-dimethylisoxazol-4-yl)-2-oxo-4-pyridin-2-yl-1,2,4,5-tetrahydroimidazo[1,5,4-de][1,4]benzoxazin-9-yl]-3,6-dihydropyridine-1(2H)-carboxylate 2,2,2-trifluoroacetate] | < 100 | < 100 |  | 
13 | Cc1noc(C)c1-c1cc(-c2cncnc2)c2[nH]c(=O)n3c2c1OC[C@@H]3c1ccccn1 [Example 84, (4S)-7-(3,5-dimethylisoxazol-4-yl)-4-pyridin-2-yl-9-pyrimidin-5-yl-4,5-dihydroimidazo[1,5,4-de][1,4]benzoxazin-2(1H)-one 2,2,2-trifluoroacetate] | 100 to 1000 | < 100 |  | 
14 | CCOC(=O)/C=C/c1cc(-c2c(C)noc2C)c2c3c1[nH]c(=O)n3[C@@H](c1ccccn1)CO2 [Example 86, ethyl (2E)-3-[(4S)-7-(3,5-dimethylisoxazol-4-yl)-2-oxo-4-pyridin-2-yl-1,2,4,5-tetrahydroimidazo[1,5,4-de][1,4]benzoxazin-9-yl]acrylate 2,2,2-trifluoroacetate] | 100 to 1000 | < 100 |  | 
15 | Cc1noc(C)c1-c1cc(C2=CCNCC2)c2[nH]c(=O)n3c2c1OC[C@@H]3c1ccccn1 [Example 87, (4S)-7-(3,5-dimethylisoxazol-4-yl)-4-pyridin-2-yl-9-(1,2,3,6-tetrahydropyridin-4-yl)-4,5-dihydroimidazo[1,5,4-de][1,4]benzoxazin-2(1H)-one bis(2,2,2-trifluoroacetate)] |  |  | 100 to 1000 | < 100
16 | C=Cc1nc2ccc(-c3c(C)noc3C)c3c2n1[C@@H](c1ccccn1)CO3 [Example 88, (4S)-7-(3,5-Dimethylisoxazol-4-yl)-4-pyridin-2-yl-2-vinyl-4,5-dihydroimidazo[1,5,4-de][1,4]benzoxazine] | < 100 | < 100 |  | 
17 | Cc1noc(C)c1-c1ccc2nc(C(=O)N(C)C)n3c2c1OC[C@@H]3c1ccccn1 [Example 91, (4S)-7-(3,5-Dimethylisoxazol-4-yl)-N,N-dimethyl-4-pyridin-2-yl-4,5-dihydroimidazo[1,5,4-de][1,4]benzoxazine-2-carboxamide] | < 100 | < 100 |  | 
18 | Cc1noc(C)c1-c1ccc2nc(C(=O)OC(C)(C)C)n3c2c1OC[C@@H]3c1ccccn1 [Example 93, tert-Butyl (4S)-7-(3,5-dimethylisoxazol-4-yl)-4-pyridin-2-yl-4,5-dihydroimidazo[1,5,4-de][1,4]benzoxazine-2-carboxylate] | < 100 | < 100 |  | 
19 | Cc1noc(C)c1-c1ccc2nc(C(=O)N3CCOCC3)n3c2c1OC[C@@H]3c1ccccn1 [Example 94, (4S)-7-(3,5-Dimethylisoxazol-4-yl)-2-(morpholin-4-ylcarbonyl)-4-pyridin-2-yl-4,5-dihydroimidazo[1,5,4-de][1,4]benzoxazine] | < 100 | < 100 |  | 
20 | Cc1noc(C)c1-c1ccc2nc(C3=CCCN(C(=O)OC(C)(C)C)C3)n3c2c1OC[C@@H]3c1ccccn1 [Example 99, tert-Butyl 5-[(4S)-7-(3,5-dimethylisoxazol-4-yl)-4-pyridin-2-yl-4,5-dihydroimidazo[1,5,4-de][1,4]benzoxazin-2-yl]-3,6-dihydropyridine-1(2H)-carboxylate] | < 100 | < 100 |  | 
